Reference: US11033598B2, “Pharmaceutical composition for preventing or treating hearing loss comprising oat extract as an active ingredient” (priority 2016, dated 2021)

Assays:
[1] = tested on: hearing loss mouse model (noise-induced hearing loss); experiment: Hearing threshold by auditory brainstem response (ABR) after exposure to noise; type: in vivo; conditions: mice; for effect of preserving the hearing threshold (ABR, tone burst): 4 kHz, 8 kHz, 16 kHz TB
Protocol: In order to verify a hearing preservation effect of avenanthramide before exposure to noise, an experiment for measuring a hearing threshold was performed using an auditory brainstem response. A method of measuring the auditory brainstem response (ABR) is a method of evaluating a response to a sound by measuring electric energy when a sound stimulus is transmitted as an electrical signal in the auditory nerve. When the sound reaches the auditory nerve through the outer ear, the middle ear, and the cochlea, the response reflects all states of the outer ear, the middle ear, and the cochlea and reflects the actual sound energy to which the sound energy reaches the brain. The hearing threshold refers to a minimum sensory point of sound that is barely audible, and in a normal mouse, the response is observed even on the small sound having the average of 20 to 30 dB.
Mice to which avenanthramide was administered and untreated control mice were divided into four groups of eight mice, respectively, and evaluated. The noise was exposed with a pure tone of 90 dB of 8 KHz for 6 hours and 10 μg/kg of avenanthramide was intraperitoneally administered to mice before 6 hours and 24 hours of exposure to noise. During the auditory brainstem response test, the stimulus sound was evaluated by lowering the sound gradually from 90 dB by 5 dB with a click sound of a broadband stimulus sound, and the smallest sound of the response was set as the threshold. In addition, the hearing threshold was measured with a stimulus sound of 4 kHz, 8 kHz, 16 kHz, 24 kHz, and 32 kHz tone burst (TB), and in order to verify a hearing preservation effect of avenanthramide, the experiment for measuring the hearing threshold was performed in the same manner as above. The result was illustrated in FIG. 7.
The noise was exposed with a pure tone of 90 dB 8 KHz for 6 hours and 10 μg/kg of avenanthramide was intraperitoneally administered to mice before 6 hours and 24 hours of exposure to noise. Then, the ABR test was performed after two weeks of noise induction in the same manner as Experimental Example 1-1 and the result was illustrated in FIG. 8.
The noise was exposed with a pure tone of 95 dB 8 KHz for 6 hours and 10 μg/kg of avenanthramide was intraperitoneally administered to mice before 6 hours and 24 hours of exposure to noise. Then, the ABR test was performed after two weeks of noise induction in the same manner as Experimental Example 1-1 and the result was illustrated in FIG. 9.

HEI-OC1 cell line = experiment: DCF-DA assay of ROS generation in gentamicin hearing loss model cells; conditions: for ROS generation rate (DCF-DA): Table 2; for protection of hearing loss (DCF-DA test) as compared to gentamicin only: 0.1 μg/ml to 2 μg/ml, 24 hours before gentamicin 4 μM; for protection of hearing loss (DCF-DA test) as compared to gentamicin only / increase rate of the DCF fluorescence intensity: HEI-OC1; for increase rate of the DCF fluorescence intensity: 24 hrs

Compound: O=C(/C=C/c1ccc(O)c(O)c1)Nc1ccc(O)cc1C(=O)O [AVN, avenanthramide-C]
- lowering of hearing threshold (ABR, click) versus exposure to noise without treatment ([1]; 10 μg/kg i.p. 6 and 24 hours before noise 90 dB 8 KHz 6 hours, ABR two weeks after noise, FIG. 8): ≥ 20 dB
- lowering of hearing threshold (ABR, click) versus exposure to noise without treatment ([1]; 10 μg/kg i.p. 6 and 24 hours before noise 95 dB 8 KHz 6 hours, ABR two weeks after noise, FIG. 9): ≥ 40 dB
- hearing threshold (ABR, click) versus control ([1]; 10 μg/kg i.p. before noise 95 dB 8 KHz 6 hours, ABR two weeks after noise, FIG. 9): almost the same threshold value as the control
- hearing threshold (ABR, click) versus exposure to noise without treatment ([1]; 10 μg/kg intraperitoneally 6 hours and 24 hours before noise (90 dB, 8 KHz, 6 hours), FIG. 7): lower threshold
- effect of preserving the hearing threshold (ABR, tone burst) ([1]; 10 μg/kg i.p. before noise 90 dB, FIG. 7): the effect of preserving the hearing threshold was high
- effect of preserving the hearing threshold (ABR, tone burst) ([1]; noise 90 dB, ABR two weeks after noise, FIG. 8): the effect of preserving the hearing threshold was high
- effect of preserving the hearing threshold (ABR, tone burst) ([1]; noise 95 dB, ABR two weeks after noise, FIG. 9): the effect of preserving the hearing threshold was high
- increase rate of DCF fluorescent intensity (HEI-OC1 cell line; AVN 0.5 μM 3 hr + GM 3 μM): 45.85
- increase rate of DCF fluorescent intensity (HEI-OC1 cell line; AVN 0.5 μM 12 hr + GM 3 μM): 45.12
- increase rate of DCF fluorescent intensity (HEI-OC1 cell line; AVN 0.5 μM 24 hr + GM 3 μM): 34.89
- ROS generation rate (DCF-DA) (HEI-OC1 cell line; AVN 1 μM alone): 4.43
- ROS generation rate (DCF-DA) (HEI-OC1 cell line; AVN 1 μM pretreated 24 hrs + GM 3 μM): 13.46
- increase rate of DCF fluorescent intensity (HEI-OC1 cell line; AVN only (0.5 μM), Table 3): 32.27
- increase rate of DCF fluorescent intensity (HEI-OC1 cell line; GM 4 μM + AVN 0.1 μM (24 hrs pretreatment)): 7.62
- increase rate of DCF fluorescent intensity (HEI-OC1 cell line; GM 4 μM + AVN 0.2 μM): 5.4
- increase rate of DCF fluorescent intensity (HEI-OC1 cell line; GM 4 μM + AVN 0.4 μM): 5.43
- increase rate of DCF fluorescent intensity (HEI-OC1 cell line; GM 4 μM + AVN 0.6 μM): 5.36
- increase rate of DCF fluorescent intensity (HEI-OC1 cell line; GM 4 μM + AVN 0.8 μM): 1.31
- increase rate of DCF fluorescent intensity (HEI-OC1 cell line; GM 4 μM + AVN 1.0 μM): 1.62
- increase rate of DCF fluorescent intensity (HEI-OC1 cell line; GM 4 μM + AVN 1.5 μM): 2.06
- increase rate of DCF fluorescent intensity (HEI-OC1 cell line; GM 4 μM + AVN 2.0 μM): 1.26
- increase rate of DCF fluorescent intensity (HEI-OC1 cell line; GM 4 μM + AVN 4.0 μM): 1.1
- increase rate of DCF fluorescent intensity (HEI-OC1 cell line; GM 4 μM + AVN 6.0 μM): 0.81
- ROS generated by gentamicin (HEI-OC1 cell line; as the avenanthramide treatment time increased (3, 12, 24 hr)): decreased
- effect on the damage by gentamicin (HEI-OC1 cell line; avenanthramide 0.1 μM, GM 4 μM): did not affect the damage by gentamicin
- decrease of the amount of ROS as compared to no avenanthramide (HEI-OC1 cell line; avenanthramide 0.2 μM, GM 4 μM): ≥ 50%
- amount of ROS generated by gentamicin (HEI-OC1 cell line; avenanthramide pretreated for 24 hours): decreased
- benefit in reducing the ROS generated by gentamicin (HEI-OC1 cell line; treatment of avenanthramide for 24 hours or more): no particular benefit
- effect of suppressing hearing loss caused by the ROS (HEI-OC1 cell line; treatment time of avenanthramide 24 hours or more): up to the same level as a control

Compound: O=C1O[C@H]([C@@H](O)CO)C(O)=C1O [ascorbic acid, reference compound]
- protection of hearing loss (DCF-DA test) as compared to gentamicin only (HEI-OC1 cell line): not verified that when the ascorbic acid was administered, particular protection of hearing loss was shown

Compound: gentamicin [reference compound]
- ROS generation rate (DCF-DA) (HEI-OC1 cell line; GM 3 μM alone): 24.39
- increase rate of DCF fluorescent intensity (HEI-OC1 cell line; GM 3 μM alone, Table 3): 56.06
- increase rate of DCF fluorescent intensity (HEI-OC1 cell line; GM 4 μM only, Table 4): 11.51
- increase rate of the DCF fluorescence intensity (HEI-OC1 cell line; Gentamicin 2 μM): 7.64%
- increase rate of the DCF fluorescence intensity (HEI-OC1 cell line; Gentamicin 3 μM): 12.59%
- increase rate of the DCF fluorescence intensity (HEI-OC1 cell line; Gentamicin 4 μM): 20.35%
- generation amount of the ROS (HEI-OC1 cell line; as the treatment amount of gentamicin was increased (0-4 μM)): increased
- cell death (HEI-OC1 cell line; gentamicin of 10 μM or more): the cells were almost died

Compound: β-glucan [reference compound]
- protection of hearing loss (DCF-DA test) as compared to gentamicin only (HEI-OC1 cell line): not verified that when the β-glucan was administered, particular protection of hearing loss was shown
